Tests used:
[1] = system: Entercoccus faecalis ATCC® 29212™; test: Broth microdilution MIC and MBC, E. faecalis; type: cell-based; settings: 37° C., 72 h, MBC and MIC values identical
Method: (§1) S. aureus and E. faecalis are Gram-positive pathogens, P. aeruginosa is a Gram-negative pathogen, and E. coli is a non-pathogenic Gram-negative organism.
(§2) The broth microdilution for determining the MIC and MBC of antimicrobial compounds was performed as previously described in Wayne, supra. Briefly, all compounds were serially diluted and 100 μl of each dilution was added to microtiter plate wells in triplicate. Overnight cultures of bacterial cells were diluted to a final inoculum of approximately 5×10^6 cfu/mL, and 100 μl of this suspension was added to all wells yielded 5×10^5 cfu/well. Cell concentrations and viability were verified by serial dilution and plating for each experiment. […] The MBC was determined as the lowest concentration of compound at which there were no colonies growing on the plate.
(§3) MIC values for the compounds of the invention were determined by the broth microdilution method as described herein. […] After microtiter plates were incubated and MICs determined, aliquots from each of the wells were placed on TSA plates and incubated to determine the MBC values for each of the compounds. The MBC was determined as the lowest concentration of compound at which there were no colonies growing on the plate. […] SDS was used for comparison in these studies.

[2] = system: Entercoccus faecalis ATCC® 29212™; settings: 100 μM of compound, […]10^6 cfu/ml, room temperature, up to 72 h
Text: (§4) Bacterial strains Staphylococcus aureus subsp. aureus ATCC® 29213™, Entercoccus faecalis ATCC® 29212™, Escherichia coli ATCC® 25922™, and Pseudomonas aeruginosa strain Boston 41501 ATCC® 27853™ were obtained from the American type Culture Collection (ATCC, Manassas, Va., USA). S. aureus and E. faecalis are Gram-positive pathogens, P. aeruginosa is a Gram-negative pathogen, and E. coli is a non-pathogenic Gram-negative organism. All strains are reference strains for the Clinical and Laboratory Standards Institute (CLSI) for antimicrobial susceptibility testing of nonfastidious bacteria, and were grown in Mueller-Hinton broth at 37° C. as recommended (Wayne, Pa. National Committee for Clinical Laboratory Standards (2009) Methods for Dilution Antimicrobial Tests for Bacteria That Grow Aerobically—Approved Standard M07-A8).
(§5) Compounds were added to the cultures to a final concentration of 100 μM, and tubes were incubated at room temperature. […] Data reported are times when no colonies were observed growing on plates after overnight incubation.

[3] = system: Staphylococcus aureus subsp. aureus ATCC® 29213™; settings: 100 μM of compound, […]10^6 cfu/ml, room temperature, up to 72 h
Text: as §4, §5

[4] = system: Escherichia coli ATCC® 25922™; settings: 100 μM of compound; for time when all cells were killed, E. coli (G−): […]10^6 cfu/ml, room temperature, up to 72 h
Text: as §4, §5

[5] = system: Staphylococcus aureus subsp. aureus ATCC® 29213™; test: Broth microdilution MIC and MBC, S. aureus; type: cell-based; settings: 37° C., 72 h, MBC and MIC values identical
Method: as §1, §2, §3

[6] = system: Escherichia coli ATCC® 25922™; test: Broth microdilution MIC and MBC, E. coli; type: cell-based; settings: 37° C., 72 h, MBC and MIC values identical
Method: as §1, §2, §3

[7] = system: Pseudomonas aeruginosa strain Boston 41501 ATCC® 27853™; test: Broth microdilution MIC and MBC, P. aeruginosa; type: cell-based; settings: 37° C., 72 h, MBC and MIC values identical
Method: as §1, §2, §3

Compound | MICs and MBCs, E. faecalis (G+) [1] | time when all cells were killed, E. faecalis (G+) [2] | time when all cells were killed, S. aureus (G+) [3] | time necessary to kill […]10^6 cfu/mL, E. coli [4] | time when all cells were killed, E. coli (G−) [4] | MICs and MBCs, S. aureus (G+) [5] | MICs and MBCs, E. coli (G−) [6] | MICs and MBCs, P. aeruginosa (G−) [7]
1-hexadecyloxy-3,5-bis[(trimethlammonoum bromide)methyl]benzene [3,5-C16 (10)] | 31 µM | 0.25 h | 0.25 h | ≤ 15 min | 0.25 h | 16 µM | 63 µM | >63 µM
1-tetradecyloxy-2,5-bis(4,4′-bipyridinium)benzene, bis-bromide salt [2,5-C14dipyr (41)] | 31 µM |  |  |  |  | 16 µM | 16 µM | 125 µM
CCCCCCCCCCCCOS(=O)(=O)[O-].[Na+] [SDS (13), SDS, reference compound] | 500 µM |  |  |  |  | 250 µM | >500 µM | >500 µM
[(2-tetradecyloxy-m-phenylene)dimethylene]bis[trimethylamonium bromide] [2,6-C14 (8)] | 50 µM |  | 48 h |  |  | 16 µM | 125 µM | 500 µM
[(2-tetradecyloxy-o-phenylene)dimethylene]bis[trimethylamonium bromide] [2,3-C14 (1)] | 31 µM | 24 h | 1 h |  | 0.5 h | 6 µM | 63 µM | 125 µM
[(5-tetradecyloxy-m-phenylene)dimethylene]bis[trimethylamonium bromide] [3,5-C14 (9)] | 31 µM | 1 h | 1 h |  | 1 h | 8 µM | 31 µM | >63 µM
[(6-tetradecyloxy-m-phenylene)dimethylene]bis[trimethylamonium bromide] [2,4-C14 (2)] | 16 µM | 2 h | 1 h |  | 1 h | 6 µM | 31 µM | 125 µM

Reference: US8980925B2, “Antimicrobial amphiphiles and methods for their use” (James Madison Innovations, Inc., priority 2010, dated 2015)
